Experimental data published in patent publication US8809341B2, “2,4-pyrimidinediamine compounds and uses as anti-proliferative agents” (Rigel Pharmaceuticals, Inc., priority 2003, dated 2014).
Like-named read-outs stand apart in the source and are kept apart here.

Tests used:
Format in all cases: cell-based
[1] = test system: A549 cells; assay: in vitro antiproliferation assay, A549 (lung)
Summary of the method: (§1)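 IC50 values came from standard antiproliferation testing in cultured tumour cells; the A549 and H1299 lines are of lung origin.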

[2] = test system: HCT116; assay: in vitro antiproliferation assay, HCT116 (colon)
Protocol: The IC50 values of various compounds against a various different tumor cell lines were determined using standard in vitro antiproliferation assays. The tumor cell lines tested were as follows: A549 (lung); H1299 (lung), ACHN (kidney/p53 wt), CAKI (renal cell carcinoma), NCI-H460 (lung); HCT116 (colon/p53w0; HELA (cervix/p53 wt), HUH7 (liver/p53 wt), HUVEC (primary endothelial), LNCAP (prostate), HT-29 (colon); MCF-7 (breast); MCF-7 (breast/ER positive), MDA MB435S (breast); MDA MB231 (breast/ER negative), DU145 (prostate); BxPC-3 (pancreatic); SKOV-3 (ovarian); HepG2 (hepatic), NDHF primary normal human dermal fibroblast), SKMEL28 (breast/p53mut), SKMEL5 (breast/p53 wt), U20S (bone) and PC3 (prostate). […] A blank indicates the specified compound was not tested against the specified cell line.
Many of the compounds were tested against other cell lines. Their activity is reported in TABLE 15, below, where +”, “−”, “−/+” or “+/−” values are as described for TABLES 1-14. Where the cell line includes a value in a parenthetical, the value indicates the seeding density at which the assay was performed

[3] = test system: H1299 cells; assay: in vitro antiproliferation assay, H1299 (lung)
Summary of the method: as §1

[4] = A549 (lung) cells, in vitro antiproliferation
[5] = HCT116 (colon), read-out: HCT116
[6] = Table 5, in vitro antiproliferation, A549 (lung) cells
[7] = Table 5, in vitro antiproliferation, H1299 (lung) cells
[8] = IC50 class against A549 (lung) tumor cells
[9] = IC50 class against H1299 (lung) tumor cells
[10] = A549 (lung) cells, antiproliferation
[11] = in vitro antiproliferation, A549 (lung) cells, Table 4, compounds with no designated stereochemistry tested as racemate
[12] = Table 7, in vitro antiproliferation, A549 (lung) cells
[13] = Table 7, in vitro antiproliferation, H1299 (lung) cells
[14] = Table 7, in vitro antiproliferation, colon cells, read-out: HTC116
[15] = H1299 (lung) cells, in vitro antiproliferation

SMILES	IC50 [2, 5] [µM]	IC50 [1, 12] [µM]	also measured
Fc1cnc(Nc2cccc(Cl)c2)nc1Nc1cccc(Cl)c1 [compound 717]	> 20	–	IC50 [1, 4]: ≤ 20 µM
Cc1c(Cl)cc(Nc2ncc(F)c(Nc3ccc4c(c3)NC(=O)C(C)(C)O4)n2)cc1Cl [compound 306]	> 20	–	IC50 [1, 11]: ≤ 20 µM; IC50 ([3]; in vitro antiproliferation, H1299 (lung) cells, Table 4, compounds with no designated stereochemistry tested as racemate): ≤ 20 µM
COc1cc(Nc2ncc(F)c(Nc3ccc4c(c3)OCCO4)n2)cc(OC)c1OC [compound 506]	> 20	–	IC50 [1, 6]: ≤ 20 µM
CCOC(=O)c1cc2cccc(Nc3ncc(F)c(NCCO)n3)c2[nH]1 [compound 667]	–	> 20	IC50 [3, 13]: > 20 µM; IC50 [2, 14]: > 20 µM
Oc1c(Cl)cc(Nc2ncc(F)c(Nc3ccc4c(c3)OCCO4)n2)cc1Cl [compound 507]	> 20	–	IC50 [1, 6]: ≤ 20 µM
COC(=O)c1cc2cc(Nc3ncc(F)c(Nc4cccc(O)c4)n3)ccc2o1 [compound 636]	> 20	≤ 20	IC50 [2, 14]: > 20 µM
COc1cc(Nc2nc(Nc3cccc4cc(C(=O)NC(C)(C)CO)[nH]c34)ncc2F)cc(OC)c1 [compound 660]	–	≤ 20	IC50 [3, 13]: ≤ 20 µM; IC50 [2, 14]: ≤ 20 µM
COC(=O)c1cc2cc(Nc3ncc(F)c(Nc4ccc(Cl)c(Cl)c4)n3)ccc2o1 [compound 652]	> 20	> 20	–
O=C(COc1cccc(Nc2ncc(F)c(Nc3ccc4c(c3)OCCO4)n2)c1)N1CCNCC1 [compound 497]	> 20	–	IC50 [1, 6]: ≤ 20 µM
CCOC(=O)c1cc2cccc(Nc3ncc(F)c(Nc4cccc(O)c4)n3)c2[nH]1 [compound 648]	–	≤ 20	IC50 [2, 14]: ≤ 20 µM
COc1cc(Nc2nc(Nc3cccc4cc(C(=O)N(C)CCO)[nH]c34)ncc2F)cc(OC)c1 [compound 659]	–	≤ 20	IC50 [3, 13]: ≤ 20 µM; IC50 [2, 14]: ≤ 20 µM
CC(C)Oc1cccc(Nc2nc(Nc3ccc4oc(C(=O)N5CCOCC5)cc4c3)ncc2F)c1 [compound 625]	–	≤ 20	IC50 [2, 14]: ≤ 20 µM
COc1cc(Nc2ncc(F)c(Nc3ccc4c(c3)NC(=O)C(C)(C)O4)n2)cc(OC)c1 [compound 305]	≤ 20	–	IC50 [1, 11]: ≤ 20 µM
NC(=O)COc1cccc(Nc2ncc(F)c(Nc3ccc4c(c3)OCCO4)n2)c1 [compound 504]	≤ 20	–	IC50 [1, 6]: ≤ 20 µM
CNC(=O)COc1cccc(Nc2ncc(F)c(Nc3ccc4c(c3)NC(=O)[C@H](C)O4)n2)c1 [compound 300]	≤ 20	–	IC50 [1, 11]: ≤ 20 µM
CC(=O)N1CCN(c2ccc(Nc3ncc(F)c(Nc4ccc5c(n4)NC(=O)C(C)(C)O5)n3)cc2)CC1 [compound 432]	≤ 20	–	–
COc1cc(Nc2nc(Nc3cc(C)cc(C(F)(F)F)c3)ncc2F)cc(OC)c1 [compound 848]	≤ 20	–	IC50 [1, 4]: ≤ 20 µM
COc1cc(Nc2ncc(F)c(Nc3cc(OC)cc(OC)c3)n2)cc(OC)c1 [compound 839]	≤ 20	–	IC50 [1, 4]: ≤ 20 µM
COC(=O)c1cc2cc(Nc3ncc(F)c(Nc4ccc(Cl)cc4)n3)ccc2o1 [compound 651]	> 20	> 20	–
COC(=O)c1cc2cc(Nc3ncc(F)c(Nc4ccc5c(c4)NC(=O)C(C)(C)O5)n3)ccc2o1 [compound 677]	> 20	≤ 20	IC50 [2, 14]: > 20 µM
Cc1cc(C)cc(Nc2ncc(F)c(Nc3ccc4c(c3)OCCO4)n2)c1 [compound 527]	≤ 20	–	IC50 [1, 6]: ≤ 20 µM
O=C(c1cc2cc(Nc3ncc(F)c(Nc4ccc5c(c4)OCCO5)n3)ccc2o1)N1CCOCC1 [compound 626]	≤ 20	< 20	IC50 [2, 14]: ≤ 20 µM

Now from value to compound, other results behind:

IC50 [2, 5] [µM]	IC50 [1, 12] [µM]	SMILES	also measured
≤ 20	–	COc1ccc(Nc2ncc(F)c(Nc3ccc(OC)c(OC)c3)n2)cc1OC [compound 710]	IC50 [1, 4]: ≤ 20 µM
≤ 20	–	OCc1cc(CO)cc(Nc2ncc(F)c(Nc3ccc4c(c3)OCCO4)n2)c1 [compound 529]	IC50 [1, 6]: ≤ 20 µM; IC50 [3, 7]: ≤ 20 µM
≤ 20	–	O=C(COc1cccc(Nc2ncc(F)c(NC3CCC3)n2)c1)NC1CC1 [compound 110]	IC50 [1, 8]: ≤ 20 µM; IC50 [3, 9]: ≤ 20 µM
≤ 20	–	CNC(=O)COc1cccc(Nc2ncc(F)c(Nc3cccc(O)c3)n2)c1 [compound 732]	IC50 [1, 4]: ≤ 20 µM
≤ 20	–	CNC(=O)COc1cccc(Nc2ncc(F)c(Nc3cc(C)c(O)c(Cl)c3)n2)c1 [compound 991]	IC50 [1, 10]: ≤ 20 µM
≤ 20	–	OCCOc1cccc(Nc2ncc(F)c(Nc3ccc4c(c3)OCCCO4)n2)c1 [compound 581]	IC50 [1, 6]: ≤ 20 µM
≤ 20	–	COc1cc(Nc2ncc(F)c(Nc3ccc4c(c3)NC(=O)C(C)(C)O4)n2)cc(C(F)(F)F)c1 [compound 309]	IC50 [1, 11]: ≤ 20 µM
≤ 20	–	COCCOc1cccc(Nc2ncc(F)c(Nc3cc(O)c(O)c(OCCOC)c3)n2)c1 [compound 933]	IC50 [1, 10]: ≤ 20 µM; IC50 ([3]; H1299 (lung) cells, antiproliferation): ≤ 20 µM
≤ 20	≤ 20	CNC(=O)c1cc2cc(Nc3ncc(F)c(Nc4ccc5c(c4)OCCO5)n3)ccc2o1 [compound 629]	IC50 [2, 14]: ≤ 20 µM
≤ 20	≤ 20	CCOC(=O)c1cc2cccc(Nc3ncc(F)c(Nc4ccc5c(c4)OCCO5)n3)c2[nH]1 [compound 647]	IC50 [2, 14]: ≤ 20 µM
≤ 20	–	CNC(=O)COc1cccc(Nc2ncc(F)c(Nc3cccc(OC)c3)n2)c1 [compound 755]	IC50 [1, 4]: ≤ 20 µM
≤ 20	–	Cc1cc(Nc2ncc(F)c(Nc3ccc4c(c3)OCCO4)n2)cc(C)c1Cl [compound 528]	IC50 [1, 6]: ≤ 20 µM
≤ 20	–	COc1cc(Nc2nc(Nc3cc(Cl)cc(Cl)c3)ncc2F)cc(OC)c1 [compound 847]	IC50 [1, 4]: ≤ 20 µM
≤ 20	–	Cc1cc(C)cc(Nc2ncc(F)c(Nc3ccc4c(c3)NC(=O)C(C)(C)O4)n2)c1 [compound 310]	IC50 [1, 11]: ≤ 20 µM
≤ 20	–	Cc1cc(C)cc(Nc2ncc(F)c(Nc3cc(C)cc(C)c3)n2)c1 [compound 841]	IC50 [1, 4]: ≤ 20 µM; IC50 [3, 15]: ≤ 20 µM
≤ 20	≤ 20	O=C(c1cc2cc(Nc3ncc(F)c(Nc4cccc(O)c4)n3)ccc2o1)N1CCNCC1 [compound 633]	IC50 [2, 14]: ≤ 20 µM
≤ 20	≤ 20	O=C(c1cc2cc(Nc3ncc(F)c(Nc4ccc5c(c4)OCCO5)n3)ccc2o1)N1CCNCC1 [compound 632]	IC50 [2, 14]: ≤ 20 µM
≤ 20	–	OCc1cc(CO)cc(Nc2ncc(F)c(Nc3ccc4c(c3)OC(F)(F)C(F)(F)O4)n2)c1 [compound 534]	IC50 [3, 7]: ≤ 20 µM
≤ 20	–	Fc1cnc(Nc2cccc(OCCN3CCOCC3)c2)nc1Nc1ccc2c(c1)OCCO2 [compound 494]	IC50 [1, 6]: ≤ 20 µM; IC50 [3, 7]: ≤ 20 µM
≤ 20	–	COc1c(Cl)cc(Nc2ncc(F)c(Nc3ccc4c(c3)NC(=O)C(C)(C)O4)n2)cc1Cl [compound 307]	IC50 [1, 11]: ≤ 20 µM
≤ 20	≤ 20	O=C(NCCO)c1cc2cc(Nc3ncc(F)c(Nc4ccc5c(c4)OCCO5)n3)ccc2o1 [compound 631]	IC50 [2, 14]: ≤ 20 µM
≤ 20	–	Fc1cnc(Nc2ccc(Cl)c(Cl)c2)nc1NC1CCC1 [compound 111]	IC50 [1, 8]: ≤ 20 µM; IC50 [3, 9]: ≤ 20 µM
< 20	–	O=C(COc1cccc(Nc2ncc(F)c(Nc3ccc4c(c3)OCCO4)n2)c1)N1CCOCC1 [compound 493]	IC50 [1, 6]: < 20 µM; IC50 [3, 7]: ≤ 20 µM
≤ 20	–	COc1cc(Nc2nc(Nc3cc(C)c(C)c(C)c3)ncc2F)cc(OC)c1 [compound 845]	IC50 [1, 4]: ≤ 20 µM; IC50 [3, 15]: ≤ 20 µM
